This note sets out measurements from publication PMC9792776 (Frontiers in Pharmacology, 2022).

In one data set the target is CYP2C9 (Homo sapiens, UniProt P11712). To be noted: recombinant enzyme.
The next data set has as its target CYP3A4 (Homo sapiens, UniProt P08684). The experiment in a line: Intrinsic clearance in human recombinant CYP3A4.
The nature of data set [1]: In vitro Caco-2 cell permeability. To be noted: human. The class given is in vitro ADME. The source says:
The first-order absorption model has different absorption rate constants (ka) and fraction available from dosage form (fa) to simulate absorption processes in fasting and fed states. […] Caco-2 (human colorectal adenocarcinoma) cells are used to model the intestinal epithelial barrier. The Simcyp (Version 19.0, Certara Inc., Sheffield, UK) minimal PBPK, which treats all organs other than the intestine and liver as a single compartment ([Rowland Yeo et al., 2010]), was selected, along with a single adjusting compartment (SAC) distribution model. The SAC is a nonphysiologic compartment that permits adjustment to the drug concentration profile in the systemic compartment ([Ke et al., 2016]).
On the technique in general: Caco-2 cells form a polarised layer with tight junctions and transporters.

The structures appear in SMILES notation.

CYP3A4, sequence (P08684 whole entry): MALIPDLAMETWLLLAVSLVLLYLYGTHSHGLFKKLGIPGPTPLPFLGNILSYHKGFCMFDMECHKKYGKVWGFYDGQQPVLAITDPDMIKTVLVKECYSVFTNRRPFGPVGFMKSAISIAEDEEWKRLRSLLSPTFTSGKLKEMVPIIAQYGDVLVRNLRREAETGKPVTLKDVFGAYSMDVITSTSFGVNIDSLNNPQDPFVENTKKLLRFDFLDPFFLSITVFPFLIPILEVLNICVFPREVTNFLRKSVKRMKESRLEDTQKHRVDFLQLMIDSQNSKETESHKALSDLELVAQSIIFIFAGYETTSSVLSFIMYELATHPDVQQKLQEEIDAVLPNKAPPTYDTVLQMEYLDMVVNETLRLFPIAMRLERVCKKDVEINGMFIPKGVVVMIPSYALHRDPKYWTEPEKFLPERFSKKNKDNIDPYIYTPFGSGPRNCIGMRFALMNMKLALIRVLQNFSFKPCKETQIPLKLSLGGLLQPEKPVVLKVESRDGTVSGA
CYP2C9, sequence (P11712 whole entry): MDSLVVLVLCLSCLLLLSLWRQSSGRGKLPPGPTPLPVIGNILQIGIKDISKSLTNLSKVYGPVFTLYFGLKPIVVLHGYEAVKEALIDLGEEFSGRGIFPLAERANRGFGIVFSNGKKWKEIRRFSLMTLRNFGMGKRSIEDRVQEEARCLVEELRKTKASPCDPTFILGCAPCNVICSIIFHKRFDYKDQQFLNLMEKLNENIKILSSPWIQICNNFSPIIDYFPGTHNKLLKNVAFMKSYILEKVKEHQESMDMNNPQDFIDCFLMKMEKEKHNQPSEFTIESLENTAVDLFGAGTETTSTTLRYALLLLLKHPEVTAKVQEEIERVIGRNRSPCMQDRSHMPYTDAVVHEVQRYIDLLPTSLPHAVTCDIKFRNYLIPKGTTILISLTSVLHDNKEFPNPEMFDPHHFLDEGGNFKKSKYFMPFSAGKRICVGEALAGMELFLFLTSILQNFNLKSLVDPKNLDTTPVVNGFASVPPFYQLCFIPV

Consider `O=C(O)Cc1ccccc1Nc1c(Cl)cccc1Cl` [Diclofenac], for which, at CYP2C9, the “CLint CYP2C9” value worked out at 2.965 µL/min/pmol CYP.

In the case of `Cc1ncc2n1-c1ccc(Cl)cc1C(c1ccccc1F)=NC2` [Midazolam, reference compound], the “CLint CYP3A4” value at CYP3A4 is on record as 3.083 µL/min/pmol CYP.

As to `CC(C)NCC(O)COc1cccc2ccccc12` (stereo not drawn) [Propranolol, propranolol, reference compound], the Papp (commonly the rate of passage across a membrane or cell layer, normalised by area and donor concentration) in data set [1] turned out to be 5.68 ×10⁻⁶ cm/s.
